According to PMC12920294, “Optimizing uPAR-targeting radiopeptides for improved tissue distribution: progress towards radionuclide therapy” (European Journal of Nuclear Medicine and Molecular Imaging, 2025):
Where two headings read alike, the source gives them in different places. Marks after values point to notes of the source that are not given here.

Experiments:
[1] = system: HEK-uPAR xenograft-bearing mice; experiment: Biodistribution in HEK-uPAR xenografted nude mice
[2] = Biodistribution in HEK-uPAR xenografted nude mice; conditions: CD1 nude, mouse, 0.5 nmol/mouse, total radioactivity, 1 h p.i., decay-corrected
human serum albumin = human serum albumin (Homo sapiens, UniProt P02768); conditions: cited from earlier work
Chain of human serum albumin (P02768 25-609): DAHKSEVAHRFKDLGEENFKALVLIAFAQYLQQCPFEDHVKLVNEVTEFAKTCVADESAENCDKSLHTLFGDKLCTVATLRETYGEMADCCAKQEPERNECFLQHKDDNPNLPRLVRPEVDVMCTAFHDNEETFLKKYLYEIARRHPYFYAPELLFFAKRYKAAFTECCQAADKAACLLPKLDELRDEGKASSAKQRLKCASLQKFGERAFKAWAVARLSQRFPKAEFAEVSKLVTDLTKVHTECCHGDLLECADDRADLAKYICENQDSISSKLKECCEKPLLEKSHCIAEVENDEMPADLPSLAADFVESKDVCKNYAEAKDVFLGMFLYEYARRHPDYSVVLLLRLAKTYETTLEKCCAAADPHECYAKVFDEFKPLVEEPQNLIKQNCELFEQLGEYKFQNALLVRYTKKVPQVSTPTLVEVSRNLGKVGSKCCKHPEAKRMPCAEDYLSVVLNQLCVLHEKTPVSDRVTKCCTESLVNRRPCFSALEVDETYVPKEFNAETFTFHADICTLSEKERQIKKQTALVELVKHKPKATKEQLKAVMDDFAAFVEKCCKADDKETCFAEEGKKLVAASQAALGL

[3] = design: method as in Beyer et al. 2025, Mol Pharm 22:3242; conditions: FVB mice, ref Beyer et al. 2025, Mol Pharm 22:3242, cited from earlier work
[4] = design: method as in Beyer et al. 2025, Mol Pharm 22:3242; conditions: 37 °C, ref Beyer et al. 2025, Mol Pharm 22:3242, cited from earlier work
[5] = design: method as in Beyer et al. 2025, Mol Pharm 22:3242; conditions: saline, L-ascorbic acid, ref Beyer et al. 2025, Mol Pharm 22:3242, cited from earlier work
[6] = system: HEK-uPAR xenograft-bearing mice; conditions: mouse, in vivo
[7] = system: HEK-uPAR xenograft-bearing mice; conditions: ref Beyer et al. 2025, Mol Pharm 22:3242, cited from earlier work
[8] = design: method as in Beyer et al. 2025, Mol Pharm 22:3242; conditions: 37 °C, ref Beyer et al. 2025, Mol Pharm 22:3242, cited from earlier work; remark: listed apart in the source
[9] = non-decay-corrected, ± standard error

For `CC(C)C[C@H](NC(=O)[C@H](Cc1ccc(O)cc1)NC(=O)[C@@H](CCCNC(=N)N)NC(=O)[C@@H](CO)NC(=O)[C@H](Cc1ccccc1)NC(=O)[C@H](CC1CCCCC1)NC(=O)[C@H](CC(=O)O)NC(=O)CN1CCN(CC(=O)O)CCN(CC(=O)O)CCN(CC(=O)O)CC1)C(=O)N[C@@H](Cc1c[nH]c2ccccc12)C(=O)N[C@@H](CO)C(N)=O` [[^177Lu]Lu-DOTA-AE105, metal not drawn], the Xgrft-to-blood ratio ([1]; 1 h p.i.) was 2.2 ± 0.2, the Xgrft-to-liver ratio ([1]; 1 h p.i.) was 4.9 ± 0.1 and the “AUC0h→48h, HEK-uPAR xenograft” value [1, 9] was 26 ± 3 % IA/g*h. For the same molecule, the “AUC0h→48h, blood” value [1, 9] was 28 ± 1 % IA/g*h, the “AUC0h→48h, kidneys” value [1, 9] was 62 ± 2 % IA/g*h and the “AUC0h→48h, liver” value [1, 9] was 6.9 ± 0.2 % IA/g*h. The tissue uptake at 1 h ([2]; HEK-uPAR xenograft, HEK-uPAR xenograft uptake) was 1.9 ± 0.7 %ID/g, the tissue uptake at 1 h ([2]; blood, Blood uptake) was 0.92 ± 0.4 %ID/g and the tissue uptake at 1 h ([2]; bone, Bone uptake) was 0.35 ± 0.11 %ID/g. The tissue uptake at 1 h ([2]; brain, Brain uptake) was under 0.03 %ID/g, the tissue uptake at 1 h ([2]; heart, Heart uptake) was 0.38 ± 0.16 %ID/g and the tissue uptake at 1 h ([2]; intestines, Intestines uptake) was 0.52 ± 0.1 %ID/g. The tissue uptake at 1 h ([2]; kidneys, Kidneys uptake) was 4.2 ± 0.8 %ID/g, the tissue uptake at 1 h ([2]; liver, Liver uptake) was 0.4 ± 0.14 %ID/g and the tissue uptake at 1 h ([2]; lung, Lung uptake) was 1.2 ± 0.4 %ID/g. For the same molecule, the tissue uptake at 1 h ([2]; muscle, Muscle uptake) was 0.14 ± 0.06 %ID/g, the tissue uptake at 1 h ([2]; pancreas, Pancreas uptake) was 0.26 ± 0.08 %ID/g and the tissue uptake at 1 h ([2]; salivary glands, Salivary glands uptake) was 0.35 ± 0.13 %ID/g. For the same molecule, the tissue uptake at 1 h ([2]; spleen, Spleen uptake) was 0.47 ± 0.17 %ID/g, the tissue uptake at 1 h ([2]; stomach, Stomach uptake) was 0.39 ± 0.2 %ID/g and the “Inverse relative albumin-binding affinity” value (human serum albumin) was 0.02^a. For the same molecule, the “Blood plasma, intact radiopeptide” value ([3]; 1 h p.i.) was under 1.0%, the “Blood plasma, radiometabolite” value ([3]; 1 h p.i.) was over 99% and the “Kidneys, intact radiopeptide” value ([3]; 1 h p.i.) was under 1.0%. The “Kidneys, radiometabolite” value ([3]; 1 h p.i.) was over 99%, the “Liver, intact radiopeptide” value ([3]; 1 h p.i.) was under 1.0% and the “Liver, radiometabolite” value ([3]; 1 h p.i.) was over 99%. For the same molecule, the “Urine, intact radiopeptide” value ([3]; 1 h p.i.) was 1.4%, the “Urine, radiometabolite” value ([3]; 1 h p.i.) was 99% and the “Blood plasma, intact radiopeptide” value ([3]; 4 h p.i.) was under 1.0%. For the same molecule, the “Blood plasma, radiometabolite” value ([3]; 4 h p.i.) was over 99%, the “Kidneys, intact radiopeptide” value ([3]; 4 h p.i.) was under 1.0% and the “Kidneys, radiometabolite” value ([3]; 4 h p.i.) was over 99%. The “Liver, intact radiopeptide” value ([3]; 4 h p.i.) was under 1.0%, the “Liver, radiometabolite” value ([3]; 4 h p.i.) was over 99% and the “Urine, intact radiopeptide” value ([3]; 4 h p.i.) was 2.3%. The “Urine, radiometabolite” value ([3]; 4 h p.i.) was 98%, the “Mouse blood plasma stability, intact radiopeptide” value (from here on “Mouse blood plasma stability”) ([4]; 1 h) was 61 ± 6% and the “Mouse blood plasma stability” value ([4]; 4 h) was 13 ± 7%. For the same molecule, the “Mouse blood plasma stability” value ([4]; 24 h) was 4.6 ± 2.2%, the “Radiolytic stability, intact radiopeptide” value (shortened to “Radiolytic stability”) ([5]; 1 h) was 98 ± 2% and the “Radiolytic stability” value ([5]; 4 h) was 98 ± 1%. The “Radiolytic stability” value ([5]; 24 h) was 96 ± 2%, the Xgrft-to-kidney ratio [6] was 0.46 ± 0.07 and the Blood uptake ([7]; 4 h p.i.) was 0.08 ± 0.01 %IA/g. The Bone uptake ([7]; 4 h p.i.) was 0.38 ± 0.03 %IA/g, the Brain uptake ([7]; 4 h p.i.) was under 0.03 %IA/g and the HEK-uPAR xenograft uptake ([7]; 4 h p.i.) was 0.87 ± 0.05 %IA/g. For the same molecule, the Heart uptake ([7]; 4 h p.i.) was 0.06 ± 0.01 %IA/g, the Intestines uptake ([7]; 4 h p.i.) was 0.31 ± 0.03 %IA/g and the Kidneys uptake ([7]; 4 h p.i.) was 1.5 ± 0.1 %IA/g. For the same molecule, the Liver uptake ([7]; 4 h p.i.) was 0.10 ± 0.01 %IA/g, the Lung uptake ([7]; 4 h p.i.) was 0.30 ± 0.02 %IA/g and the Muscle uptake ([7]; 4 h p.i.) was under 0.03 %IA/g. For the same molecule, the Pancreas uptake ([7]; 4 h p.i.) was 0.06 ± 0.01 %IA/g, the Salivary glands uptake ([7]; 4 h p.i.) was 0.09 ± 0.01 %IA/g and the Spleen uptake ([7]; 4 h p.i.) was 0.18 ± 0.02 %IA/g. The Stomach uptake ([7]; 4 h p.i.) was 0.15 ± 0.03 %IA/g, the Xgrft-to-blood ratio ([7]; 4 h p.i.) was 11 ± 1 and the Xgrft-to-liver ratio ([7]; 4 h p.i.) was 8.6 ± 0.4. For the same molecule, the Blood uptake ([7]; 24 h p.i.) was under 0.03 %IA/g, the Bone uptake ([7]; 24 h p.i.) was 0.84 ± 0.10 %IA/g and the Brain uptake ([7]; 24 h p.i.) was under 0.03 %IA/g. The HEK-uPAR xenograft uptake ([7]; 24 h p.i.) was 0.40 ± 0.19 %IA/g, the Heart uptake ([7]; 24 h p.i.) was 0.04 ± 0.01 %IA/g and the Intestines uptake ([7]; 24 h p.i.) was 0.18 ± 0.02 %IA/g. The Kidneys uptake ([7]; 24 h p.i.) was 1.3 ± 0.1 %IA/g, the Liver uptake ([7]; 24 h p.i.) was 0.17 ± 0.01 %IA/g and the Lung uptake ([7]; 24 h p.i.) was 0.21 ± 0.01 %IA/g. For the same molecule, the Muscle uptake ([7]; 24 h p.i.) was under 0.03 %IA/g, the Pancreas uptake ([7]; 24 h p.i.) was 0.06 ± 0.01 %IA/g and the Salivary glands uptake ([7]; 24 h p.i.) was 0.09 ± 0.01 %IA/g. The Spleen uptake ([7]; 24 h p.i.) was 0.23 ± 0.04 %IA/g, the Stomach uptake ([7]; 24 h p.i.) was 0.17 ± 0.03 %IA/g and the Xgrft-to-blood ratio ([7]; 24 h p.i.) was 32 ± 13. For the same molecule, the Xgrft-to-liver ratio ([7]; 24 h p.i.) was 2.4 ± 0.9, the “Human blood plasma stability, intact radiopeptide” value (“Human blood plasma stability” below) ([8]; 1 h) was 71 ± 3% and the “Human blood plasma stability” value ([8]; 4 h) was 13 ± 6%. The “Human blood plasma stability” value ([8]; 24 h) was 4.5 ± 1.2%.
